Assay results as given in ChEMBL document CHEMBL1201862, “PubChem BioAssay data set” (2004).
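A five-concentration, 48-hour dose response in 96-well plates underlies each endpoint, interpolated linearly between surrounding concentrations. Here, GI50 denotes the concentration required for 50% inhibition of growth.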 The source made the active and inactive calls. Rule as the data show it: active = GI50 up to about 1.1 µM and inactive = higher.

Key:
Assay in all cases: growth of human tumour cells (NCI), 48 h
KM-20L2 = system: KM-20L2
SNB-78 = system: SNB-78
LXFL 529 = system: LXFL 529
DMS-114 = system: DMS-114
RXF 631 = system: RXF 631
HOP-18 = system: HOP-18
M19-MEL = system: M19-MEL
XF498 = system: XF498
DMS-273 = system: DMS-273

Measured: GI50

CCC1CN2CCc3cc(OC)c(OC)cc3C2CC1CC1c2cc(OC)c(OC)cc2CCN1C(=O)C1CCCN1C(=O)OCc1ccccc1 (centres undefined)
inactive: KM-20L2 16.7 µM | SNB-78 16 µM | LXFL 529 16.3 µM | DMS-114 13.9 µM | RXF 631 18.5 µM | HOP-18 23.1 µM | M19-MEL 15.5 µM | XF498 16.6 µM | DMS-273 16.3 µM

CN1CC[C@]2(C)c3ccc(O)cc3CC3CCCC1C32C (some centres undefined)
inactive: KM-20L2 > 100 µM | SNB-78 > 100 µM | LXFL 529 > 100 µM | DMS-114 > 100 µM | RXF 631 > 100 µM | HOP-18 > 100 µM | M19-MEL > 100 µM | XF498 > 100 µM

CCN(CC)C(=O)c1c(Cl)cc(N(CC)CC)oc1=O
inactive: KM-20L2 > 100 µM | SNB-78 > 100 µM | LXFL 529 > 100 µM | DMS-114 > 100 µM | HOP-18 > 100 µM | M19-MEL > 100 µM | XF498 > 100 µM | DMS-273 > 100 µM

COc1ccc(OC)c(NC(=O)C(=O)CC(=O)c2sc(-n3nc(-c4ccccc4)cc3-c3ccccc3)nc2C)c1
inactive: KM-20L2 > 100 µM | SNB-78 > 100 µM | LXFL 529 > 100 µM | DMS-114 > 100 µM | RXF 631 > 100 µM | M19-MEL > 100 µM | DMS-273 > 100 µM

CC(C)(C)C(=O)OCC(COC(=O)C(C)(C)C)[N+](=O)[O-]
inactive: LXFL 529 > 100 µM | DMS-114 > 100 µM | M19-MEL > 100 µM | XF498 > 100 µM | DMS-273 > 100 µM

CC(C)C1CC2C(=O)N(c3ccccc3)C(=O)C2c2[nH]c3ccccc3c21 (centres undefined)
inactive: KM-20L2 73.6 µM | SNB-78 22.4 µM | DMS-114 20.4 µM | M19-MEL 56.4 µM | XF498 23.3 µM | DMS-273 9.84 µM

C[C@]12CC[C@@H]3c4ccccc4CC[C@H]3[C@@H]1CC[C@@H]2O
inactive: KM-20L2 33.8 µM | SNB-78 > 100 µM | LXFL 529 > 100 µM | M19-MEL 78 µM | DMS-273 51.1 µM

COC1(OC)CC2C(=O)N(Cc3ccccc3)C1C=C2S(=O)(=O)c1ccccc1 (centres undefined)
inactive: KM-20L2 18.8 µM | SNB-78 21.8 µM | LXFL 529 15.6 µM | DMS-114 17.2 µM | HOP-18 17.1 µM | M19-MEL 16 µM | XF498 17.8 µM

C#CCOCn1cnc2c(Cl)ncnc21
inactive: SNB-78 > 100 µM | LXFL 529 > 100 µM | DMS-114 41.4 µM | RXF 631 > 100 µM | HOP-18 > 100 µM | M19-MEL > 100 µM | XF498 > 100 µM | DMS-273 > 100 µM

O=C(NCc1ccncc1)C1COc2cc(-c3cc(=O)c4ccccc4o3)ccc2O1 (centres undefined)
inactive: KM-20L2 > 100 µM | SNB-78 > 100 µM | LXFL 529 > 100 µM | M19-MEL > 100 µM | XF498 > 100 µM

O=C1c2ccccc2C2(O)c3cc4ccccc4cc3OC12O (centres undefined)
inactive: KM-20L2 > 100 µM | SNB-78 46.7 µM | LXFL 529 55.5 µM | DMS-114 25.1 µM | HOP-18 69.7 µM | M19-MEL 47.2 µM | DMS-273 46.8 µM

CCSC(SCC)c1cc2c(cc1Br)OCO2
inactive: KM-20L2 11.5 µM | SNB-78 26.5 µM | DMS-114 15.5 µM | RXF 631 13.1 µM | M19-MEL 19.1 µM | XF498 20.4 µM | DMS-273 3.7 µM

ClC1=C(Cl)C(Cl)(Cl)c2c3c(c4c(c21)C(Cl)(Cl)C(Cl)=C4Cl)C(Cl)(Cl)C(Cl)=C3Cl
inactive: KM-20L2 > 100 µM | LXFL 529 > 100 µM | DMS-114 > 100 µM | XF498 > 100 µM | DMS-273 > 100 µM

CC(=O)OCC1OC(n2c(-c3ccc(N)cc3)cc(-c3ccco3)c(C#N)c2=O)C(OC(C)=O)C(OC(C)=O)C1OC(C)=O (centres undefined)
inactive: KM-20L2 > 50 µM | SNB-78 > 50 µM | LXFL 529 11.1 µM | DMS-114 2.64 µM | RXF 631 44.3 µM | HOP-18 > 50 µM | M19-MEL 18.7 µM | DMS-273 5.26 µM

CCOc1ccccc1NC(=O)C(=O)CC(=O)c1sc(Nc2nnc(-c3ccc(Cl)c(Cl)c3)o2)nc1C
inactive: KM-20L2 > 100 µM | SNB-78 > 100 µM | LXFL 529 > 100 µM | DMS-114 > 100 µM | HOP-18 > 100 µM | M19-MEL > 100 µM | DMS-273 59 µM

N#C/C(=C\c1ccccc1F)C(=O)c1ccccc1
inactive: KM-20L2 > 100 µM | SNB-78 > 100 µM | LXFL 529 > 100 µM | DMS-114 > 100 µM | M19-MEL > 100 µM | XF498 > 100 µM | DMS-273 > 100 µM

N#C/C(=C\c1ccc2[nH]ccc2c1)C(=O)NCCCCNC(=O)/C(C#N)=C/c1ccc2[nH]ccc2c1
inactive: KM-20L2 > 100 µM | SNB-78 > 100 µM | LXFL 529 > 100 µM | DMS-114 > 100 µM | M19-MEL > 100 µM | XF498 > 100 µM | DMS-273 > 100 µM

CC(C)(C)c1ccc2c(c1)S(=O)(=O)Nc1ccccc1NS(=O)(=O)c1cc(C(C)(C)C)ccc1OCCOCCOCCO2
inactive: SNB-78 59.8 µM | DMS-114 > 100 µM | RXF 631 97.3 µM | HOP-18 > 100 µM | M19-MEL > 100 µM | DMS-273 > 100 µM

CC(=O)NN1C(=O)C(Cc2ccccc2)c2ccccc21 (centres undefined)
inactive: KM-20L2 > 100 µM | SNB-78 > 100 µM | DMS-114 > 100 µM | RXF 631 > 100 µM | HOP-18 > 100 µM | M19-MEL > 100 µM | XF498 > 100 µM | DMS-273 > 100 µM

CC1(C2COC(=O)C2)SCCCS1 (centres undefined)
inactive: KM-20L2 > 100 µM | LXFL 529 > 100 µM | DMS-114 > 100 µM | HOP-18 > 100 µM | M19-MEL > 100 µM | XF498 > 100 µM | DMS-273 > 100 µM

CCCCCCCCCCCC(=O)OCCOCCOCCOCCOCCOCc1ccc(OC)cc1
inactive: KM-20L2 > 100 µM | SNB-78 > 100 µM | LXFL 529 > 100 µM | DMS-114 > 100 µM | RXF 631 > 100 µM | HOP-18 > 100 µM | M19-MEL > 100 µM | DMS-273 > 100 µM

CCCCCCC(=O)C/C(CCC(=O)N(Cc1ccccc1)Cc1ccccc1)=N\NC(N)=O
inactive: KM-20L2 > 100 µM | SNB-78 > 100 µM | LXFL 529 > 100 µM | DMS-114 > 100 µM | RXF 631 > 100 µM | HOP-18 > 100 µM | M19-MEL > 100 µM | XF498 > 100 µM | DMS-273 > 100 µM
